Test systems include A498 renal; CCRF-CEM leukemia; DU-145 prostate; MCF7 breast; OVCAR-3 ovarian; SF-539 CNS; SK-MEL-5 melanoma; SN12C renal; T-47D breast; UACC-257 melanoma.
Holding throughout (assay): inhibition of tumour cell growth, NCI panel, 48 h

Structures are written as SMILES.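 A five-concentration, 48-hour dose response in 96-well plates underlies each endpoint, interpolated linearly between surrounding concentrations. TGI marks complete inhibition of growth.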 A value given as a limit tells only on which side of the number the result lay.

For the molecule `COc1cccc(/C=N/n2c(Cc3ccc(Cl)cc3)n[nH]c2=O)c1`, the TGI in the assay on A498 renal is greater than 100 µM; with CCRF-CEM leukemia it was greater than 100 µM; in the assay on DU-145 prostate it was greater than 100 µM; with MCF7 breast it was greater than 100 µM; in the assay on OVCAR-3 ovarian, greater than 100 µM; with SF-539 CNS, 32.6 µM. The TGI with SK-MEL-5 melanoma is greater than 100 µM; in the assay with SN12C renal it was 71 µM; in the assay with T-47D breast, greater than 68.2 µM; in the assay with UACC-257 melanoma, greater than 100 µM.

For the molecule `Cc1nc2ccccc2cc1C[N+]12CN3CN(CN(C3)C1)C2`, the TGI in the assay with A498 renal came to 47.8 µM; in the assay on CCRF-CEM leukemia, 23.7 µM; in the assay on DU-145 prostate, 82.1 µM; with MCF7 breast, 27.7 µM; with OVCAR-3 ovarian, 86.2 µM; in the assay with SF-539 CNS, 64.5 µM. The TGI in the assay on SK-MEL-5 melanoma was 32.8 µM; in the assay on SN12C renal, 48.1 µM; in the assay on T-47D breast, greater than 100 µM; in the assay on UACC-257 melanoma, 35.5 µM.

As for `CN1CCN(c2c(O)c3c(c(O)c2Cl)C(=O)C=CC3=O)CC1`, the TGI came to 4.54 µM in the assay on A498 renal; 0.41 µM in the assay on CCRF-CEM leukemia; 3.19 µM in the assay on DU-145 prostate; 0.576 µM in the assay with MCF7 breast; 1.47 µM with OVCAR-3 ovarian; 2.32 µM in the assay on SF-539 CNS. The TGI worked out at 1.11 µM in the assay with SK-MEL-5 melanoma, 2.1 µM in the assay with SN12C renal, 4.25 µM in the assay with T-47D breast and 1.58 µM in the assay with UACC-257 melanoma.

On to `COc1cnnc2c(C)c(-c3ccccc3)nn12`, for which the TGI in the assay with A498 renal, in the assay on CCRF-CEM leukemia, in the assay with DU-145 prostate, in the assay with MCF7 breast, with OVCAR-3 ovarian and with SF-539 CNS was greater than 100 µM in each case. Moreover, the TGI in the assay with SK-MEL-5 melanoma, with SN12C renal, in the assay with T-47D breast and with UACC-257 melanoma was greater than 100 µM in each case.

Regarding `Cc1nc(N)nc(N)c1N1CCN(Cc2ccccc2)CC1`, the TGI in the assay on A498 renal, with CCRF-CEM leukemia, in the assay with DU-145 prostate, in the assay with MCF7 breast, in the assay with OVCAR-3 ovarian and in the assay on SF-539 CNS was greater than 100 µM each time. Moreover, the TGI in the assay on SK-MEL-5 melanoma, in the assay with SN12C renal, in the assay with T-47D breast and in the assay with UACC-257 melanoma was greater than 100 µM in each case.

In the case of `CCCC1C(C#N)(C#N)C(C#N)=C(N)C1(C)C(C)=O` (configuration not stated), the TGI with A498 renal, in the assay on CCRF-CEM leukemia, in the assay with DU-145 prostate, in the assay with MCF7 breast, in the assay with SF-539 CNS and in the assay on SK-MEL-5 melanoma was greater than 100 µM each time. The TGI in the assay on SN12C renal, in the assay on T-47D breast and in the assay with UACC-257 melanoma was greater than 100 µM each time.

Regarding `Nc1ccc(-c2nc3cc(F)ccc3s2)cc1`, the TGI in the assay on A498 renal is greater than 100 µM; in the assay on CCRF-CEM leukemia, greater than 100 µM; in the assay on DU-145 prostate, greater than 100 µM; with MCF7 breast, greater than 63.2 µM; with OVCAR-3 ovarian, greater than 100 µM; in the assay on SF-539 CNS it was greater than 100 µM. In addition, the TGI in the assay on SK-MEL-5 melanoma, in the assay with SN12C renal, in the assay on T-47D breast and in the assay with UACC-257 melanoma was greater than 100 µM throughout.

Regarding `Cc1ccsc1/C=N/Nc1ccccn1`, the TGI in the assay with A498 renal was greater than 100 µM; in the assay on CCRF-CEM leukemia, greater than 100 µM; with DU-145 prostate, greater than 100 µM; in the assay on MCF7 breast, greater than 100 µM; in the assay on OVCAR-3 ovarian, greater than 100 µM; in the assay with SK-MEL-5 melanoma it was 54.4 µM. For the same molecule, the TGI with SN12C renal, in the assay on T-47D breast and in the assay on UACC-257 melanoma was greater than 100 µM in each case.

Consider `CC(CN(C)C)C(=O)/C=C/c1ccc(Cl)c(Cl)c1` (configuration not stated), for which the TGI with A498 renal is 3.69 µM; in the assay with CCRF-CEM leukemia, 2.74 µM; in the assay with DU-145 prostate, greater than 100 µM; in the assay with MCF7 breast it was 0.929 µM; with OVCAR-3 ovarian, 3.87 µM; in the assay with SK-MEL-5 melanoma it was 2.99 µM. Also, the TGI in the assay on SN12C renal was 3.11 µM; in the assay on T-47D breast, greater than 100 µM; in the assay on UACC-257 melanoma, 5.61 µM.

Take `COc1cc([C@@H]2c3cc4c(cc3[C@@H](Nc3ccc(NC(=O)c5cc(NC(=O)c6cc([N+](=O)[O-])cn6C)cn5C)cc3)[C@H]3COC(=O)[C@H]23)OCO4)cc(OC)c1O`: the TGI in the assay with A498 renal was greater than 52.9 µM; in the assay on CCRF-CEM leukemia, greater than 37.8 µM; in the assay with DU-145 prostate it was 5.22 µM; in the assay on MCF7 breast, greater than 39.1 µM; with OVCAR-3 ovarian, greater than 100 µM; in the assay on SF-539 CNS, greater than 100 µM. Moreover, the TGI is greater than 33.5 µM in the assay on SK-MEL-5 melanoma, 26.5 µM with SN12C renal, greater than 62.8 µM in the assay on T-47D breast and greater than 82.4 µM in the assay on UACC-257 melanoma.

Take `C/C(=N\NC(=O)N/N=C(\C)c1ccccn1)c1ccccn1`: the TGI in the assay with A498 renal was greater than 100 µM; in the assay with CCRF-CEM leukemia, greater than 100 µM; in the assay with DU-145 prostate, greater than 100 µM; in the assay with MCF7 breast, greater than 100 µM; in the assay with OVCAR-3 ovarian, greater than 100 µM; with SF-539 CNS it was 3.04 µM. The TGI in the assay with SK-MEL-5 melanoma was greater than 47.3 µM; with SN12C renal, greater than 100 µM; with T-47D breast, greater than 100 µM; with UACC-257 melanoma, greater than 100 µM.

Consider `O=C1C(CN2CCCC2)CCCC1CN1CCCC1` (configuration not stated), for which the TGI is 38.7 µM in the assay on A498 renal; 0.231 µM in the assay on CCRF-CEM leukemia; 34.2 µM in the assay on DU-145 prostate; 2.8 µM in the assay on MCF7 breast; 9.62 µM in the assay with OVCAR-3 ovarian; 16.1 µM in the assay on SF-539 CNS. The TGI in the assay with SK-MEL-5 melanoma amounted to 30.4 µM; in the assay on SN12C renal, 32.5 µM; with T-47D breast it was 6.96 µM; in the assay on UACC-257 melanoma, 4.39 µM.

As to `CC(C)C(/C=C/c1ccccc1)=N\NC(=S)NN`, the TGI in the assay with A498 renal is greater than 100 µM; with CCRF-CEM leukemia, greater than 89.9 µM; in the assay with DU-145 prostate, greater than 100 µM; in the assay with MCF7 breast, greater than 76.6 µM; with OVCAR-3 ovarian, greater than 88.8 µM; in the assay on SF-539 CNS, greater than 100 µM. Moreover, the TGI in the assay on SK-MEL-5 melanoma, with SN12C renal, in the assay with T-47D breast and in the assay on UACC-257 melanoma was greater than 100 µM throughout.

Consider `COc1cc(C2c3cc4c(cc3OC(N3CCOCC3)C2C)OCO4)cc(OC)c1OC(C)=O` (configuration not stated), for which the TGI with A498 renal is 81.3 µM; with CCRF-CEM leukemia, greater than 100 µM; in the assay with DU-145 prostate, greater than 92.5 µM; in the assay with MCF7 breast it was greater than 100 µM; in the assay on OVCAR-3 ovarian it was 59.4 µM; in the assay on SF-539 CNS, 40.2 µM. The TGI in the assay on SK-MEL-5 melanoma is greater than 51 µM; with SN12C renal, greater than 84.2 µM; with T-47D breast it was greater than 81.8 µM; in the assay on UACC-257 melanoma, greater than 100 µM.

Source of the values: PubChem BioAssay (NCI).
